Where a name gives a salt, the structure may show the parent alone. Read-outs that look alike come from different tables or passages of the source.
Legend:
Plasmodium falciparum = assay: In vitro test of inhibitory activity against proliferation of malarial parasites in human red blood cells; type: cell-based; details: for Selective toxicity: ratio of EC50 for the F28-7 cell line to EC50 for the malarial parasite (P. falciparum FCR-3 strain); for Rate (%) of proliferation of malarial parasite: 72 hours
Method: In this test Example, two strains of Plasmodium falciparum, namely strain FCR-3 (ATCC 30932) and strain Honduras-1 (ATCC 30950) were used as the malarial parasites to be tested, and each malarial strain was incubated separately in vitro as described below. […] The resulting culture medium as supplemented with the human serum was then adjusted to have a hematocrit level (namely, a ratio of the total volume of the red blood cells to the volume of the liquid culture medium comprising the suspended red blood cells) of 5%, and thereafter the culture medium as adjusted was placed in individual wells of 24-well incubation microplates. The culture medium in each well was inoculated with Plasmodium falciparum under test. The initial rate (%) of infection of the red blood cells with the malarial parasite in individual wells was then adjusted to a value of 0.1% at the start of the incubation. Thereafter, there was carried out the incubation of the red blood cells along with the infecting Plasmodium falciparum. This incubation was effected at 36.5° C. in an atmosphere comprising 5.0% oxygen, 5.0% carbon dioxide and 90% nitrogen.
The culture medium present in each well was daily changed freshly. At the time when the rate (%) of infection of the red blood cells with the malarial parasite increased to reach a value of 4%, the transfer of the incubated cultures to another incubation microplates was conducted. Thus, the cultures of the malarial parasites under test were prepared.
By the way, the rate (%) of infection of the red blood cells with the malarial parasite as above-mentioned was evaluated by a procedure that comprised removing a sample from the culture of the parasitized red blood cells in each well, preparing thin blood film specimen containing the red blood cells from each sample, staining said thin blood film specimen by means of Giemsa staining or Diff-Qick staining method, counting the number of the stained red blood cells as infected with the malarial parasite per one thin blood film, under a microscope (oil immersion; 1,000×), and calculating the rate (%) of infection of the red blood cells with malarial parasite according to the undermentioned equation: [formula]
In turn, the abovementioned culture of the parasitized red blood cells as prepared in the above was subjected to a centrifugation to collect the red blood cells which had been infected with the malarial parasite. The infected red blood cells so collected were washed with an PRMI 1640 medium supplemented with the human serum, and then were added with such red blood cells which were not yet infected with the malarial parasite. Thus, there was prepared such a culture of the malarial parasite having infected the red blood cells, in which the initial rate (%) of infection of the red blood cells with the malarial parasite had firstly been adjusted to a value of 0.3%. The hematocrit level of this culture of the malarial parasite so prepared at this time point was 3%.
On the other hand, the compound to be tested in the present experiments was previously prepared in the form of a solution of each compound dissolved in a sterilized water, dimethylformamide (DMF) or dimethylsulfoxide (DMSO).
(i) The culture medium to be used for incubation of malarial parasite as above-mentioned was placed in individual wells of a multidish 24-wells. Then, for the treated test groups, each solution of the test compound as previously prepared in the above was added in an amount of 5 to 10 microliters (μl) into each well containing said culture medium therein. Then, the concentration of the test compound as added to the culture medium present in the individual wells of the multidish 24-well microplates was adjusted to different values in the individual wells. The test was carried out in duplicate or triplicate. On the other hand, for the control test groups (untreated), no test compound was added to each well, but instead thereof sterilized water, DMF or DMSO was added thereto in an amount of 10 μl.

[1] = test system: subclone F28-7 cells of FM3A cell line originating from a mouse mammary tumor; assay: Toxicity of test compound against subclone F28-7 cells of FM3A cell line (cell proliferation); type: cell-based; details: for EC50: Mus musculus, FM3A; for Rate (%) of proliferation of cells of the F28-7 cell line: 48 hours
Method: Cells of subclone F28-7 cell line of a mouse mammary tumor, which is a wild type cell line of the FM3A cell line originating from a mouse mammary tumor, were used as the test cells. The culture medium to be used for cultivation of the cells of the subclone F28-7 cell line was prepared by supplementing an ES medium with 2% of a heat-inactivated fetal bovine serum. The cultivation of the subclone F28-7 cell line under test was effected in this serum-supplemented ES medium at 37° C. in air containing 5% CO2.
After the pre-cultivation was effected, the cell density of cells of the subclone F28-7 cell line which had entered the logarithmic proliferation phase was adjusted to a level of 5×10^4 cells/ml by diluting the culture of the cells with a volume of the fresh culture medium. Thus, there was prepared a cell suspension of cells of the subclone F28-7 cell line as cultured.
For the solution of the test compound, there was used the same solution as that which was hereinbefore prepared in the test for the determination of the antimalarial activity of the test compound against the proliferation of malarial parasite.
The culture medium to be used for the cultivation of the subclone F28-7 cell line above mentioned was placed in the individual wells of a multidish 24-wells. Then, for the treated test groups, the solution of the test compound was added in an amount of 5˜10 microliters to the culture medium in each well of the incubation plate so as to adjust a final concentration of the test compound as added to be 1×10^−4 to 1×10^−6 M.
The test was carried out in duplicate or triplicate. On the other hand, for the control test groups (untreated), no test compound was added to each well, but instead thereof a sterilized water, DMF or DMSO was added to each well in an amount of 10 μl. Then, the cell suspension of cells of the subclone F28-7 cell line as already prepared in the above was dispensed in an amount of 990-995 μl to each well by pipetting. The pipetting was effected carefully and gently, so that the cells as added were evenly suspended in the culture medium in each well. Thereafter, the cells of subclone F28-7 cell line were incubated for 48 hours under the aforesaid cultivating conditions. Then, the number of the cells of the subclone F28-7 cell line was counted by means of a microcell counter (CC-108, Toa Medical Electric Co.) for the cell culture as obtained in the individual wells of both the treated test groups and the control test (untreated) groups.
The inhibitory activity of the test compound against the proliferation of cells of the subclone F28-7 cell line was subsequently estimated from such value of the rate (%) of the proliferation of cells of the subclone F28-7 cell line which is defined by the undermentioned equation with reference to the counted number of cells of the subclone F28-7 cell line in the cell culture contained in each well and having been incubated in the presence of the test compound added for the treated test group, and with reference to the counted number of cells of the subclone F28-7 cell line having been incubated in the absence of the test compound for the control test group. The toxicity of the test compound was thus evaluated from the value of the rate (%) of proliferation of cells of the subclone F28-7 cell line so estimated. [formula]

[2] = Acute toxicity, intraperitoneal injection; type: in vivo; details: mouse, in vivo, ip; ICR mice, intraperitoneal administration, 14th day
Method: (§1) SF2487 substance (Na salt) in the form of a solution dissolved in a physiological saline containing 10% DMSO was administered to ICR mice (5-weeks old, 3 mice per group) in different doses by intraperitoneal injection.

ICR mice = assay: Acute toxicity, intraperitoneal injection; type: in vivo; details: 14th day, 3 mice per group
Method: as §1

[3] = test system: Plasmodium berghei NK65 strain; assay: In vivo test of antimalarial activity against malarial parasite in infected ICR mice; details: ICR mice infected with P. berghei NK65, dose of 5 mg/kg, printed 'intravenous injection', once a day on Day 0 and Day 1, blood read on Day 4
Source text: As mice for this test, there were used ICR mice (male) of 5-weeks old with body weight of 26-31 g (five mice per group). As the source of the malarial infection for this experiment, murine malarial parasite, Plasmodium berghei NK65 strain was used.
Blood sample was drawn by cardiac puncture from each of the donor ICR mice which had been infected with Plasmodium berghei NK65 strain. […]
For sake of convenience, a time schedule was so set that the time of inoculating the test mice with the malarial parasite by intravenous injection of the cell suspension of the parasitized red blood cells was Day 0. […] For both of the untreated test group and the treated test group, the rate (%) of infection of the red blood cells with the malarial parasite in each of the mouse blood samples was evaluated. […] The rate (%) of inhibition against the proliferation of the malarial parasite used here indicates such value as calculated by the following equation: [formula] where A means the average rate (%) of infection of the red blood cells with the malarial parasite as effected in the untreated test group, and B means the average rate (%) of infection of the red blood cells with the malarial parasite as effected in the treated test group.

Solubility in solvents = type: physicochemical
[4] = read-out: EC50 values, namely molar concentrations of test compound for the 50% inhibition of proliferation, P. falciparum FCR-3 strain, 72 hours incubation
[5] = read-out: EC50 values, namely molar concentrations of test compound for the 50% inhibition of proliferation, the F28-7 cell line, F28-7 cell line, 48 hours incubation
[6] = 48 h, read-out: EC50 values, namely molar concentrations of test compound for the 50% inhibition of proliferation, the F28-7 cell line
[7] = 1 × 10^−7 Molar test compound in culture medium

C[C@@H]1CC[C@H]2[C@@H](C)C(=O)O[C@@H]3O[C@@]4(C)CC[C@@H]1[C@]32OO4 [Artemisinin, reference compound]
EC50 (Plasmodium falciparum; [4]): 7.8 nM | EC50 [1, 5]: 10000 nM

CCN(CC)CCCC(C)Nc1ccnc2cc(Cl)ccc12 (stereo not drawn) [Chloroquine, reference compound]
EC50 (Plasmodium falciparum; [4]): 18 nM | EC50 [1, 6]: 32000 nM

OC(c1cc(C(F)(F)F)nc2c(C(F)(F)F)cccc12)C1CCCCN1 (stereo not drawn) [Mefloquine, reference compound]
Selective toxicity (Plasmodium falciparum): 91 | EC50 (Plasmodium falciparum; [4]): 32 nM | EC50 [1, 5]: 2900 nM

CCc1nc(N)nc(N)c1-c1ccc(Cl)cc1 [Pyrimethamine, reference compound]
Selective toxicity (Plasmodium falciparum): 120 | EC50 (Plasmodium falciparum; [4]): 1 nM | EC50 [1, 5]: 120 nM

C=C[C@H]1C[N@@]2CC[C@H]1C[C@H]2[C@H](O)c1ccnc2ccc(OC)cc12 [Quinine, reference compound]
Selective toxicity (Plasmodium falciparum): 910 | EC50 (Plasmodium falciparum; [4]): 110 nM | EC50 [1, 5]: 100000 nM

C=C1OC(O)=C(C(=O)C(OC)C2C(/C=C(\CO)C3CCC(C)C(/C(C)=C/CC4OC(C)(C5CCC(C(O)CC)O5)CC4C)O3)CC(C)C(O)C2CO)C1=O (stereo not drawn) [SF2487 substance Na salt]
Rate (%) of proliferation of malarial parasite (Plasmodium falciparum; [7]): 0% | Rate (%) of proliferation of malarial parasite (Plasmodium falciparum; 1 × 10^−8 Molar test compound in culture medium): 10% | Rate (%) of proliferation of malarial parasite (Plasmodium falciparum; 1 × 10^−9 Molar test compound in culture medium): 60% | Rate (%) of proliferation of malarial parasite (Plasmodium falciparum; 1 × 10^−10 Molar test compound in culture medium): 100% | Rate (%) of proliferation of malarial parasite (Plasmodium falciparum; 3 × 10^−8 Molar test compound in culture medium): 5% | Rate (%) of proliferation of malarial parasite (Plasmodium falciparum; 3 × 10^−9 Molar test compound in culture medium): 40% | Rate (%) of proliferation of malarial parasite (Plasmodium falciparum; 3 × 10^−10 Molar test compound in culture medium): 100% | Rate (%) of proliferation of malarial parasite (Plasmodium falciparum; 7 × 10^−8 Molar test compound in culture medium): 0% | Rate (%) of proliferation of malarial parasite (Plasmodium falciparum; 7 × 10^−9 Molar test compound in culture medium): 25% | Rate (%) of proliferation of malarial parasite (Plasmodium falciparum; 7 × 10^−10 Molar test compound in culture medium): 85% | EC50 (Plasmodium falciparum; Plasmodium falciparum, Erythrocyte, read-out: concentration necessary to inhibit the proliferation of malarial parasite by 50% (EC50)): 2 nM | Selective toxicity (Plasmodium falciparum): 800 | LD50 at 14 days [2]: ≥ 25 mg/kg | mortality (ICR mice; 12.5 mg/kg intraperitoneal injection): all three mice survived | mortality (ICR mice; 25 mg/kg intraperitoneal injection): one mouse died among three mice | rate (%) of inhibition against the proliferation of the malarial parasite [3]: 80% | solubility (Solubility in solvents; in chloroform, ethyl acetate and dimethylsulfoxide): soluble | solubility (Solubility in solvents; in ethanol): slightly soluble | solubility (Solubility in solvents; in water): hardly soluble | Rate (%) of proliferation of cells of the F28-7 cell line ([1]; 1 × 10^−5 Molar test compound in culture medium): 0% | Rate (%) of proliferation of cells of the F28-7 cell line ([1]; 1 × 10^−6 Molar test compound in culture medium): 58% | Rate (%) of proliferation of cells of the F28-7 cell line [1, 7]: 100% | Rate (%) of proliferation of cells of the F28-7 cell line ([1]; 3 + 10^−5 Molar test compound in culture medium): 0% | Rate (%) of proliferation of cells of the F28-7 cell line ([1]; 3 × 10^−6 Molar test compound in culture medium): 45% | Rate (%) of proliferation of cells of the F28-7 cell line ([1]; 3 × 10^−7 Molar test compound in culture medium): 100% | Rate (%) of proliferation of cells of the F28-7 cell line ([1]; 7 × 10^−6 Molar test compound in culture medium): 10% | Rate (%) of proliferation of cells of the F28-7 cell line ([1]; 7 × 10^−7 Molar test compound in culture medium): 70% | EC50 [1, 6]: 1600 nM | EC50 ([1]; read-out: concentration necessary to inhibit the proliferation of cells of the F28-7 cell line by 50% (EC50)): 1600 nM

From US6939892B2, “Compositions for treating or preventing malaria and method of treating malaria” (Zaidan Hojin Biseibutsu Kagaku Kenkyu Kai, priority 2000, dated 2005)
